The text below walks through data of patent publication US20040186122A1, “Method of treating acute pain with a unitary dosage form comprising ibuprofin and oxycodone” (Forest Laboratories, Inc., priority 2002, published 2004).

One may read the Papp A→B as how fast a substance crosses the layer from the apical side. What is called bioavailability is the share of a dose that reaches the circulation, judged against a reference dose that is usually intravenous.

The test system of data set [1] is Caco-2 cell monolayers. As to the kind of experiment: Membrane integrity (TEER) of Caco-2 cell monolayers before and after transport. It counts as cell-based. Conditions: at the concentrations used; TEER 980-1002 Ωcm^2 before, not changed after transport. As for the experimental part:
Each treatment was performed in triplicate. […] Samples then underwent LC/MS/MS analysis.
(Caco-2 cells form a polarised layer with tight junctions and transporters.)

The conditions of data set [2]: cited from earlier work.
The conditions of data set [3]: tertiary amine; cited from earlier work.
Data set [4] in a line: Transport (Papp) across Caco-2 cell monolayers, AP to BL. Conditions: human, Caco-2, Apparent permeability coefficients of oxycodone (±standard deviation) (n = 3); for Papp A→B at 20 min, 0.02 mg/ml: after 20 minutes; for Papp A→B at 80 min, 0.02 mg/ml: oxycodone 0.02 mg/ml, AP-to-BL.
Data set [5] relates to Caco-2 cell monolayers. The data set is described as above. Conditions: after the initial 20-minute transport period.
The next data set can be described thus: in vitro. Conditions: human, Caco-2, Apparent permeability coefficients of ibuprofen (±standard deviation) (n = 3).

In the case of `COc1ccc2c3c1O[C@H]1C(=O)CC[C@@]4(O)[C@@H](C2)N(C)CC[C@]314.Cl` [oxycodone HCl, oxycodone hydrochloride], the “integrity of Caco-2 cell monolayers (TEER)” value in the data set with Caco-2 cell monolayers [1] is given as “did not compromise the integrity”. Further, the absolute bioavailability in data set [2] (literature (Leow et al. 1992)) was 87%. In data set [3], the pKa result was “about 9”. Further, the Papp A→B at 20 min, 0.02 mg/ml in data set [4] (ibuprofen 0 mg/ml) came to 15 ± 0.9 ×10⁻⁶ cm/s; in data set [4] (ibuprofen 0.8 mg/ml), 20 ± 0.6 ×10⁻⁶ cm/s; in data set [4] (ibuprofen 1.6 mg/ml), 19 ± 0.3 ×10⁻⁶ cm/s; in data set [4] (ibuprofen 3.2 mg/ml), 16 ± 0.7 ×10⁻⁶ cm/s. Also, the Papp A→B at 80 min, 0.02 mg/ml was 54.2 ± 0.9 ×10⁻⁶ cm/s in data set [4] (ibuprofen 0 mg/ml), 56.9 ± 1.4 ×10⁻⁶ cm/s in data set [4] (ibuprofen 0.8 mg/ml), 55.1 ± 1.3 ×10⁻⁶ cm/s in data set [4] (ibuprofen 1.6 mg/ml) and 50.5 ± 0.5 ×10⁻⁶ cm/s in data set [4] (ibuprofen 3.2 mg/ml (precipitate)). Moreover, the “percentage of transported oxycodone from apical to basolateral compartment” value stood at 20% in the data set with Caco-2 cell monolayers [5] (ibuprofen 0.8 mg/ml), 19% in the data set with Caco-2 cell monolayers [5] (ibuprofen 1.6 mg/ml) and 15% with Caco-2 cell monolayers [5] (no ibuprofen). For the same compound, in the data set on Caco-2 cell monolayers [5] (ibuprofen 3.2 mg/ml (precipitating)), the “transport of oxycodone, effect of ibuprofen” value was “did not increase the transport”.

On to `CC(C)Cc1ccc(C(C)C(=O)O)cc1` (stereo not drawn) [ibuprofen], for which the “integrity of Caco-2 cell monolayers (TEER)” value with Caco-2 cell monolayers [1] is “did not compromise the integrity”. In addition, the apparent permeability from apical to basolateral (Papp A→B) at 80 min, 0.2 mg/ml in “in vitro” amounted to 56.5 ± 4.3 ×10⁻⁶ cm/s. For the same compound, the bioavailability in data set [2] (literature (Hall et al. 1993)) is ~100%.
